From patent publication US20250195513A1, “DEGRADATION OF IRAK4 BY CONJUGATION OF IRAK4 INHIBITORS WITH E3 LIGASE LIGAND AND METHODS OF USE” (BeiGene, Ltd., priority 2022, published 2025)

Tests used:
IRAK4 [1] = molecular target: T1, IRAK4 (Homo sapiens, UniProt Q9NWZ3); experiment: IRAK4 Degradation Assay with Human Serum (Karpas299, HTRF/TR-FRET); format: cell-based; settings: Karpas-299 in human serum, 24 hrs treatment; for DC50: read-out: IRAK4 degradtion with human serum assay DC50; for Dmax: read-out: IRAK4 degradtion with human serum assay Dmax (%)
T1 construct: endogenous in cells; host or cells: Karpas299
T1 sequence (Q9NWZ3 1-460): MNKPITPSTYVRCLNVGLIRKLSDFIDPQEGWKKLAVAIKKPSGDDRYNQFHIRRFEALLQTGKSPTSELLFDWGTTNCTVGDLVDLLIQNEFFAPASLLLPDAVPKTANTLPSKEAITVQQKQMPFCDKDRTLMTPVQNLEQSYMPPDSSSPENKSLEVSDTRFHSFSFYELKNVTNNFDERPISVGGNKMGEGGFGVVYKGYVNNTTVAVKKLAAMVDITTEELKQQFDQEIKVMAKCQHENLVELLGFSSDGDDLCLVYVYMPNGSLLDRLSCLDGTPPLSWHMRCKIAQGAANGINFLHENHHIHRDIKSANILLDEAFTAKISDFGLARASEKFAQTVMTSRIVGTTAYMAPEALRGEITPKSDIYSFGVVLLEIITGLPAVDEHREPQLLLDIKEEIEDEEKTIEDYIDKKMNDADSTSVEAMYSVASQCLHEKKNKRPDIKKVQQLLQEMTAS
Procedure, shortened: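 Karpas299 cells in human AB serum (0.2 million/well) treated with serial compound dilutions for 24 h. After lysis, IRAK4 quantified by HTRF (overnight antibody incubation at room temperature, 665/620 nm read). Degradation percentage fitted to four-parameter curve to give DC50.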

IRAK4 [2] = molecular target: T1, IRAK4; experiment: IRAK4 Degradation Assay (Karpas299, HTRF/TR-FRET); format: cell-based; settings: Karpas-299 cells
Procedure, shortened: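 Karpas299 cells at 0.2 million per well were exposed to serially diluted compounds for 24 h or 5 h, then lysed. IRAK4 remaining in lysates was quantified by HTRF (665/620 nm) after overnight antibody incubation at room temperature. Percent degradation was fitted to a four-parameter curve to give IC50 (DC50).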

[3] = 24 h treatment, maximum percentage of degradation, read-out: IRAK4 in Karpas-299 (24 h) Dmax (%)
[4] = 24 h treatment, read-out: IRAK4 in Karpas-299 (24 h) DC50

DC50 (IRAK4 [1])	Dmax (IRAK4 [1])	Dmax (IRAK4 [2]; [3])	DC50 (IRAK4 [2]; [4])	Dmax (IRAK4 [2]; 5 h treatment, maximum percentage of degradation, read-out: IRAK4 in Karpas-299 (5 h) Dmax (%))	DC50 (IRAK4 [2]; 5 h treatment, read-out: IRAK4 in Karpas-299 (5 h) DC50)	IRAK4 degradtion with human serum assay Dmax (%) (IRAK4 [1])	IRAK4 in Karpas-299 (24 h) Dmax (%) (IRAK4 [2]; 24 h treatment, maximum percentage of degradation)	Compound
64 nM	99%	93%	0.6 nM					CC(C)(O)c1cc2nn([C@H]3CC[C@H](N4CCN(C5CN(c6cc(F)c([C@H]7CCC(=O)NC7=O)c(F)c6)C5)CC4=O)CC3)cc2cc1NC(=O)c1ccc2cc(C#N)cnn12 [Example 335, 3-cyano-N-(2-((1R,4r)-4-(4-(1-(4-((R)-2,6-dioxopiperidin-3-yl)-3,5-difluorophenyl)azetidin-3-yl)-2-oxopiperazin-1-yl)cyclohexyl)-6-(2-hydroxypropan-2-yl)-2H-indazol-5-yl)pyrrolo[1,2-b]pyridazine-7-carboxamide]
28 nM	97%	97%	1.7 nM					CCc1cc(N2CC(C(=O)N3CCN([C@H]4CC[C@H](n5cc6cc(NC(=O)c7ccc8cc(C#N)cnn78)c(C(C)(C)O)cc6n5)CC4)CC3)C2)ccc1N1CCC(=O)NC1=O [Example 257, 3-cyano-N-(2-((1r,4r)-4-(4-(1-(4-(2,4-dioxotetrahydropyrimidin-1(2H)-yl)-3-ethylphenyl)azetidine-3-carbonyl)piperazin-1-yl)cyclohexyl)-6-(2-hydroxypropan-2-yl)-2H-indazol-5-yl)pyrrolo[1,2-b]pyridazine-7-carboxamide]
11 nM	98%	96%	0.6 nM					CC(C)(O)c1cc2nn([C@H]3CC[C@H](N4CCN(C(=O)C5CN(c6cnc(C7CCC(=O)NC7=O)c(F)c6)C5)CC4)CC3)cc2cc1NC(=O)c1ccc2cc(C#N)cnn12 (stereo partly shown) [Example 187, 3-cyano-N-(2-((1r,4r)-4-(4-(1-(6-(2,6-dioxopiperidin-3-yl)-5-fluoropyridin-3-yl)azetidine-3-carbonyl)piperazin-1-yl)cyclohexyl)-6-(2-hydroxypropan-2-yl)-2H-indazol-5-yl)pyrrolo[1,2-b]pyridazine-7-carboxamide]
7.7 nM	93%	93%	1.1 nM					C[C@@H]1CN([C@H]2C[C@@H](c3cc(F)c([C@H]4CCC(=O)NC4=O)c(F)c3)C2)CCN1[C@H]1CC[C@H](n2cc3cc(NC(=O)c4ccc5cc(C#N)cnn45)c(C(C)(C)O)cc3n2)CC1 [Example 365, 3-cyano-N-(2-((1R,4r)-4-((R)-4-((1S,3S)-3-(4-((R)-2,6-dioxopipendin-3-yl)-3,5-difluorophenyl)cyclobutyl)-2-methylpiperazin-1-yl)cyclohexyl)-6-(2-hydroxypropan-2-yl)-2H-indazol-5-yl)pyrrolo[1,2-b]pyridazine-7-carboxamide]
50 nM	94%	97%	1.6 nM					CC(C)(O)c1cc2nn(C34CC(N5CCN(C(=O)C6CN(c7cc(F)c([C@H]8CCC(=O)NC8=O)c(F)c7)C6)CC5)(C3)C4)cc2cc1NC(=O)c1cccc(C(F)(F)F)n1 [Example 153, (R)—N-(2-(3-(4-(1-(4-(2,6-dioxopiperidin-3-yl)-3,5-difluorophenyl)azetidine-3-carbonyl)piperazin-1-yl)bicyclo[1.1.1]pentan-1-yl)-6-(2-hydroxypropan-2-yl)-2H-indazol-5-yl)-6-(trifluoromethyl)picolinamide]
75 nM	73%	95%	0.4 nM					N#Cc1cnn2c(C(=O)Nc3cc4cn([C@H]5CC[C@H](N6CCN(C(=O)C7CN(c8cc(F)c([C@H]9CCC(=O)NC9=O)c(F)c8)C7)CC6)CC5)nc4c4c3OCO4)ccc2c1 [Example 355]
37 nM	95%	94%	1.8 nM					CC(C)(O)c1cc2nn([C@H]3CC[C@H](N4CCN(C(=O)N5CCN(c6ccc(C7CCC(=O)NC7=O)cc6)CC5)CC4)CC3)cc2cc1NC(=O)c1ccc2cc(C#N)cnn12 (stereo partly shown) [Example 292, 3-cyano-N-(2-((1r,4r)-4-(4-(4-(4-(2,6-dioxopiperidin-3-yl)phenyl)piperazine-1-carbonyl)piperazin-1-yl)cyclohexyl)-6-(2-hydroxypropan-2-yl)-2H-indazol-5-yl)pyrrolo[1,2-b]pyridazine-7-carboxamide]
14 nM	98%	102%	1.5 nM					CC(C)(O)c1cc2nn(C3CCN([C@@H]4CCN(C5CN(c6cc(F)c([C@H]7CCC(=O)NC7=O)c(F)c6)C5)CC4(F)F)CC3)cc2cc1NC(=O)c1ccc2cc(C#N)cnn12 [Example 342, 3-cyano-N-(2-((R)-1′-(1-(4-((R)-2,6-dioxopiperidin-3-yl)-3,5-difluorophenyl)azetidin-3-yl)-3′,3′-difluoro-[1,4′-bipiperidin]-4-yl)-6-(2-hydroxypropan-2-yl)-2H-indazol-5-yl)pyrrolo[1,2-b]pyridazine-7-carboxamide]
5.4 nM	94%	93%	0.8 nM					CC(C)(O)c1cc2nn([C@H]3CC[C@H](N4CCN(C5CN(c6cc(F)c([C@H]7CCC(=O)NC7=O)c(F)c6)C5)CC4)CC3)cc2cc1NC(=O)c1coc2cccnc12 [Example 404, N-(2-((1R,4r)-4-(4-(1-(4-((R)-2,6-dioxopiperidin-3-yl)-3,5-difluorophenyl)azetidin-3-yl)piperazin-1-yl)cyclohexyl)-6-(2-hydroxypropan-2-yl)-2H-indazol-5-yl)furo[3,2-b]pyridine-3-carboxamide]
5.5 nM	87%	95%	0.9 nM					COC[C@H]1CN([C@H]2CC[C@H](n3cc4cc(NC(=O)c5ccc6cc(C#N)cnn56)c(C(C)(C)O)cc4n3)CC2)CCN1CC1CCN(c2ccc3c(c2)CN(C2CCC(=O)NC2=O)C3=O)CC1 (stereo partly drawn) [Example 402, 3-cyano-N-(2-((1R,4r)-4-((3R)-4-((1-(2-(2,6-dioxopiperidin-3-yl)-1-oxoisoindolin-5-yl)piperidin-4-yl)methyl)-3-(methoxymethyl)piperazin-1-yl)cyclohexyl)-6-(2-hydroxypropan-2-yl)-2H-indazol-5-yl)pyrrolo[1,2-b]pyridazine-7-carboxamide]
7.1 nM	100%	98%	1.1 nM	93%	1.6 nM			CC(C)(O)c1cc2nn([C@H]3CC[C@H](N4CCN(CCNc5cc(F)c(C6CCC(=O)NC6=O)c(F)c5)CC4)CC3)cc2cc1NC(=O)c1ccc2cc(C#N)cnn12 (stereo partly shown) [Example 135, 3-cyano-N-(2-((1r,4r)-4-(4-(2-((4-(2,6-dioxopiperidin-3-yl)-3,5-difluorophenyl)amino)ethyl)piperazin-1-yl)cyclohexyl)-6-(2-hydroxypropan-2-yl)-2H-indazol-5-yl)pyrrolo[1,2-b]pyridazine-7-carboxamide]
12 nM			1.7 nM			96%	95%	CC(C)(O)c1cc2nn([C@H]3CC[C@H](N4CCN(CC5CN(c6cc(F)c([C@H]7CCC(=O)NC7=O)c(F)c6)C5)CC4)CC3)cc2cc1NC(=O)c1ccc2n1NCC(C#N)=C2 [Example 397, 3-cyano-N-(2-((1r,4r)-4-(4-((1-(4-((R)-2,6-dioxopiperidin-3-yl)-3,5-difluorophenyl)azetidin-3-yl)methyl)piperazin-1-yl)cyclohexyl)-6-(2-hydroxypropan-2-yl)-2H-indazol-5-yl)-1,2-dihydropyrrolo[1,2-b]pyridazine-7-carboxamide]
3 nM	96%	98%	1.1 nM					COC[C@@H]1CN(C2CCN(c3ccc(C4CCC(=O)NC4=O)nc3C)CC2)CCN1[C@H]1CC[C@H](n2cc3cc(NC(=O)c4ccc5cc(C#N)cnn45)c(C(C)(C)O)cc3n2)CC1 (stereo partly drawn) [Example 423, 3-cyano-N-(2-((1S,4r)-4-((2S)-4-(1-(6-(2,6-dioxopiperidin-3-yl)-2-methylpyridin-3-yl)piperidin-4-yl)-2-(methoxymethyl)piperazin-1-yl)cyclohexyl)-6-(2-hydroxypropan-2-yl)-2H-indazol-5-yl)pyrrolo[1,2-b]pyridazine-7-carboxamide]
14 nM	85%	96%	10.8 nM					CC(C)(O)c1cc2nn([C@H]3CC[C@H](CN4CCN(C5CCN(c6ccc7c(c6)C(=O)N(C6CCC(=O)NC6=O)C7=O)CC5)CC4)CC3)cc2cc1NC(=O)c1ccc2cc(C#N)cnn12 (stereo partly shown) [Example 436, 3-cyano-N-(2-((1r,4r)-4-((4-(1-(2-(2,6-dioxopiperidin-3-yl)-1,3-dioxoisoindolin-5-yl)piperidin-4-yl)piperazin-1-yl)methyl)cyclohexyl)-6-(2-hydroxypropan-2-yl)-2H-indazol-5-yl)pyrrolo[1,2-b]pyridazine-7-carboxamide]
